From patent US11786468B2, “Nanoparticles” (KING'S COLLEGE LONDON, priority 2015, dated 2023)
“And” between values parts separate entries of the source, which are not always exact repeats. Equal entries are not always repeated. Values belong to the compound of their own block, whether it stands above or below them.

Legend:
[1] = 7T MRI T1/T2 assessment and relaxometry of liposome samples; format: physicochemical; parameters: r1: unit not given here; details: for T1 (s) 1 param / T1 (s) 3 param / T1 (s) Image J / T2 (s) 1 param / T2 (s) Image J / T2 (s) 3 param: 7T
From the text: A series of MRI T1/T2 assessment studies have been carried out using a 7 T pre clinical MRI scanner, with the assistance of Dr Po-Wah So (James Black Centre, KCL). The focus here has been to derive reliable r1/r2 relaxivities per molar Gd(III) for liposome produced using the [Gd]DOTA.DSA, [Gd]DOTA.Ahx.DSA and [Gd]DOTA.Aoc.DSA. This is reliant on both accurate measurements of the T1/T2 effects and also the exact gadolinium concentration in the prepared liposome suspensions. The extrusion and gel filtration processes make this latter hard to estimate, so Inductively Coupled Plasma Mass Spectrometry (ICP-MS) quantification is being assessed. This is turn required testing of suitable acid digestion conditions since the lipid-chelates may not be analysed directly. For both MRI and ICP-MS, commercial Gadovist is being used a positive control contrast agent of known Gd content. Assessment of temperature, buffer salt and liposome size effects on T1/T2 are also underway.
FIGS. 22 and 23 show Example T1 and T2 brightness traces for controls and liposome samples.
MRI data (T1, T2 lower is brighter) is shown Table 1:
Comparison of liposomes containing different lipids as measured at 7T Magnet*.

[2] = Pharmacokinetics of topotecan in blood by HPLC; format: in vivo, Balb C Mice; details: i.v. tail vein, concentration matched
Experimental: Balb C Mice were injected with IgFUS-TNPs encapsulating topotecan (8 mg/kg per mouse body weight) and drug pharmacokinetics monitored by blood sample analyses. Blood samples (50-100 μL) were collected at time intervals (2 min-4 h) and transferred into pre-weighed plastic vials containing heparin (5 uL). Cold methanol (100 μL) was added to each and the mixed samples stored over dry ice or at −20° C. until required. After thawing, each vial was weighed again and the difference used to estimate then original sample volume. […] Batches of 5 samples were analysed three times using an Agilent 1100 HPLC equipped with a cooled sample chamber (8-12° C.), a guarded Thermo Hypersil 30×4.6 mm, 5 μm C18 column, a Diode Array Detector (UV/vis absorbance) and an Agilent 1260 Infinity fluorescence detector. […] Detection was by absorbance (210/254/280 nm for proteins and other biologicals; 380 nm for topotecan; all using a bandwidth of 8 nm c.p. reference at 700 nm) and fluorescence (Ex 400 nm; Em 545 nm; PMT-gain 18). Injections were 5-20 μL depending on the sample concentrations and quantifications were calculated from the fluorescence peak areas after calibration (the detector response was effectively linear over the sensitive range). Topotecan could be reliably identified even at extremely low concentrations (10-20 ng/mL) by its intrinsic fluorescence and retention time (3.33±0.03 min; N=45). […]

[3] = 19.6 °C, conc >0.3 mM, dil not given
[4] = 19.6 °C, dil 1 (liposomes 20 mg/mL; Gadovist 3.1 or 3 mM), Gadovist 3 mM
[5] = 19.6 °C, dil 1 (liposomes 20 mg/mL; Gadovist 3.1 or 3 mM), Gadovist 3.1 mM
[6] = 35.5 °C, conc >0.3 mM, dil not given

T1 (s) 1 param [1, 3]: 2.033 s
T1 (s) 3 param [1, 3]: 2.061 s
T1 (s) Image J [1, 3]: 2.061 s
T2 (s) 1 param [1, 3]: 0.206 s
T2 (s) Image J [1, 3]: 0.1 s
T1 (s) 1 param [1, 4]: 0.09174 s
T1 (s) 3 param [1, 4]: 0.07712 s
T1 (s) Image J [1, 4]: 0.092 s
T2 (s) 1 param [1, 4]: 0.04691 s
T2 (s) 3 param [1, 4]: 0.0488 s
T2 (s) Image J [1, 4]: 0.047 s
T1 (s) 1 param [1, 5]: 0.072 s
T1 (s) 3 param [1, 5]: 0.084 s
T1 (s) Image J [1, 5]: 0.084 s
T2 (s) 1 param [1, 5]: 0.0431 s and 0.0426 s
T2 (s) 3 param [1, 5]: 0.0422 s and 0.0419 s
T2 (s) Image J [1, 5]: 0.042 s
T1 (s) 1 param [1, 6]: 2.602 s
T1 (s) 3 param [1, 6]: 2.617 s
T1 (s) Image J [1, 6]: 2.606 s
T2 (s) 1 param [1, 6]: 0.153 s
T2 (s) Image J [1, 6]: 0.1 s
T1 (s) 1 param ([1]; 39.5 °C, dil 1 (Gadovist 3 mM)): 0.1297 s
T1 (s) 3 param ([1]; 39.5 °C, dil 1 (Gadovist 3 mM)): 0.1138 s
T1 (s) Image J ([1]; 39.5 °C, dil 1 (Gadovist 3 mM)): 0.13 s
T2 (s) 1 param ([1]; 39.5 °C, dil 1 (Gadovist 3 mM)): 0.05335 s
T2 (s) 3 param ([1]; 39.5 °C, dil 1 (Gadovist 3 mM)): 0.05578 s
T2 (s) Image J ([1]; 39.5 °C, dil 1 (Gadovist 3 mM)): 0.053 s
r1 ([1]; measured at 7T Magnet): 4.8
SMILES: O=C([O-])CN1CCN(CC(=O)[O-])CCN([C@H](CO)[C@H](O)CO)CCN(CC(=O)[O-])CC1.[Gd+3] (racemic) [Gadovist]

drug clearance from the blood pool [2]: cleared from the blood pool in mins
SMILES: CC[C@@]1(O)C(=O)OCc2c1cc1n(c2=O)Cc2cc3c(CN(C)C)c(O)ccc3nc2-1 [topotecan]
